Target: T1, PDE4B2 (Homo sapiens, UniProt Q07343)
T1 construct: made in house; host or cells: SF21 insect cells (baculovirus prepared in SF9 cells, pCR-Bac vector)
Assay: Inhibition of PDE4 activity, [3H]cAMP SPA enzyme assay with recombinant PDE4B2
Format: biochemical
Settings: recombinant PDE4B2 (GB no. M97515) expressed in SF21 insect cells; 0.5 μM cAMP; 15 min at 37° C.; read-out: PDE4 Inhibition [measured as −logIC50 (mol/l)] (converted)
Method: Method for Measuring Inhibition of PDE4 Activities
The PDE4B2 (GB no. M97515) was a gift of Prof. M. Conti (Stanford University, USA). It was amplified from the original plasmid (pCMV5) via PCR with primers Rb9 (5′-[…]-3′) and Rb10 (5′-[…]-3′) and cloned into the pCR-Bac vector (Invitrogen, Groningen, NL).
The recombinant baculovirus was prepared by means of homologous recombination in SF9 insect cells. The expression plasmids were co-transfected with Bac-N-Blue (Invitrogen, Groningen, NL) or BaculoGold DNA (Pharmingen, Hamburg) using a standard protocol (Pharmingen, Hamburg). Wt virus-free recombinant virus supernatants were selected using plaque assay methods. After that, high-titre virus supernatants were prepared by amplifying 3 times. PDE4B2 was expressed in SF21 cells by infecting 2×10^6 cells/ml with an MOI (multiplicity of infection) between 1 and 10 in serum-free SF900 medium (Life Technologies, Paisley, UK). The cells were cultured at 28° C. for 48-72 hours, after which they were pelleted for 5-10 min at 1000 g and 4° C.
The SF21 insect cells were resuspended, at a concentration of approx. 10^7 cells/ml, in ice-cold (4° C.) homogenization buffer (20 mM Tris, pH 8.2, containing the following additions: 140 mM NaCl, 3.8 mM KCl, 1 mM EGTA, 1 mM MgCl2, 10 mM p-mercaptoethanol, 2 mM benzamidine, 0.4 mM Pefablock, 10 μM leupeptin, 10 μM pepstatin A, 5 μM trypsin inhibitor) and disrupted by ultrasonication. The homogenate was then centrifuged for 10 min at 1000×g and the supernatant was stored at 80° C. until subsequent use (see below). The protein content was determined by the Bradford method (BioRad, Munich) using BSA as the standard.
PDE4B2 activity was inhibited by the said compounds in a modified SPA (scintillation proximity assay) test, supplied by Amersham Biosciences (see procedural instructions “phosphodiesterase [3H]cAMP SPA enzyme assay, code TRKQ 7090”), carried out in 96-well microtitre plates (MTP's). The test volume is 100 μl and contains 20 mM Tris buffer (pH 7.4), 0.1 mg of BSA (bovine serum albumin)/ml, 5 mM Mg^2+, 0.5 μM cAMP (including about 50,000 cpm of [3H]cAMP), 1 μl of the respective substance dilution in DMSO and sufficient recombinant PDE (1000×g supernatant, see above) to ensure that 10-20% of the cAMP is converted under the said experimental conditions. […] After a preincubation of 5 min at 37° C., the reaction is started by adding the substrate (cAMP) and the assays are incubated for a further 15 min; after that, they are stopped by adding SPA beads (50 μl). In accordance with the manufacturer's instructions, the SPA beads had previously been resuspended in water, but were then diluted 1:3 (v/v) in water; the diluted solution also contains 3 mM IBMX to ensure a complete PDE activity stop. After the beads have been sedimented (>30 min), the MTP's are analyzed in commercially available […] detection devices. The corresponding IC50 values of the compounds for the inhibition of PDE activities are determined from the concentration-effect curves by means of non-linear regression.
The inhibitory values determined for the compounds according to the invention follow from the following Table 1, in which the numbers of the compounds correspond to the numbers of the examples.

T1 sequence (Q07343 1-564 isoform Q07343-2): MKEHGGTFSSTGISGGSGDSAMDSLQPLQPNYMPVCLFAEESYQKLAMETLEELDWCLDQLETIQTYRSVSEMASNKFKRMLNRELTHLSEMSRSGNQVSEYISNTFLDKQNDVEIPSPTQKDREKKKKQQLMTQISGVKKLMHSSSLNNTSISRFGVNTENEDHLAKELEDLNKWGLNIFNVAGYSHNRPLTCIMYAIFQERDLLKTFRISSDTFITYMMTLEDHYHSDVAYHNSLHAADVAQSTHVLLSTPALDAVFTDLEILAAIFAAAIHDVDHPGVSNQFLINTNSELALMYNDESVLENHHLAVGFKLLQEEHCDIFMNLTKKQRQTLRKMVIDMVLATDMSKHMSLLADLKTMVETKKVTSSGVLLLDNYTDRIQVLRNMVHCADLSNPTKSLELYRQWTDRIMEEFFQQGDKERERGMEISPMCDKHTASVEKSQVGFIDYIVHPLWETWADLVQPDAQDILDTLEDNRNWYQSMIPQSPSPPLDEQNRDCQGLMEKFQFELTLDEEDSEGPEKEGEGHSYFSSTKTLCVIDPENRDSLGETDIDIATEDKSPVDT

Row | Structure (SMILES) | IC50 [nM]
1 | CCOc1cc2c(cc1OC)C(c1ccc(C(=O)OC)cc1)=N[C@@H]1CCOC[C@H]21 [Compound 2, 4-((4aR,10aR)-6-Ethoxy-7-methoxy-1,4,4a,10a-tetrahydro-2H-3-oxa-10-aza-phenanthren-9-yl)-benzoic acid methyl ester] | 20
2 | CCOc1cc2c(cc1OC)C(c1ccc(C(=O)N(C(C)C)C(C)C)cc1)=N[C@@H]1CCOC[C@H]21 [Compound 1, 4-((4aR,10aR)-6-Ethoxy-7-methoxy-1,4,4a,10a-tetrahydro-2H-3-oxa-10-aza-phenanthren-9-yl)-N,N-diisopropyl-benzamide] | 2.75
3 | CCOc1cc2c(cc1OC)C(c1ccc(C(=O)N3CCOCC3)cc1)=N[C@@H]1CCOC[C@H]21 [Compound 4, 1-[4((4aR,10aR)-6-Ethoxy-7-methoxy-1,4,4a,10a-tetrahydro-2H-3oxa-10-aza-phenanthren-9-yl)-phenyl]-1-morpholin-4-yl-methanone] | 39.8
4 | CCOc1cc2c(cc1OC)C(c1ccc(C(=O)O)cc1)=N[C@@H]1CCOC[C@H]21 [Compound 3, 4-((4aR,10aR)-6-Ethoxy-7-methoxy-1,4,4a,10a-tetrahydro-2H-3-oxa-10-aza-phenanthren-9-yl)-benzoic acid] | 33.9

Continued, values first:

Row | IC50 [nM] | Structure (SMILES)
5 | 57.5 | CCOc1cc2c(cc1OC)C(c1ccc(C(=O)N(C)C)cc1)=N[C@@H]1CCOC[C@H]21 [Compound 5, 1-[4-((4aR,10aR)-6-Ethoxy-7-methoxy-1,4,4a,10a-tetrahydro-2H-3-oxa-10-aza-phenanthren-9-yl)]-N,N-dimethyl-benzamide]
6 | 20.4 | CCOc1cc2c(cc1OC)C(c1ccc(C(=O)N3CCN(C)CC3)cc1)=N[C@@H]1CCOC[C@H]21 [Compound 6, 1-[4-((4aR,10aR)-6-Ethoxy-7-methoxy-1,4,4a,10a-tetrahydro-2H-3oxa-10-aza-phenanthren-9-yl)-phenyl-]1-(4-methyl-piperazin-1-yl)-methanone]

Reference: US7838521B2, “3-oxa-10-aza-phenanthrenes” (NYCOMED GmbH, priority 2004, dated 2010)
